Here are results for six compounds from ChEMBL document CHEMBL1146478, “Saponins from the bark of Nephelium maingayi” (J Nat Prod, 2004).

Converted amounts (≈) assume the structure as drawn.

Data set [1] can be described thus: Cytotoxicity against human HUVEC. The data set is classed as cell-based. The following applies: HUVEC cells, read-out: ED50 (the source's name).
The next data set relates to MCF7. Put plainly: Cytotoxicity against human MCF7 cells. The class given is functional. The following applies: read-out: ED50 (the source's name).
In the next data set the test system is LNCaP. Put plainly: Cytotoxicity against human LNCAP cells. As to conditions: read-out: ED50 (the source's name). The data set is classed as functional.
Another data set deals with Lu1. Description: Cytotoxicity against human Lu1 cells. The data set is classed as functional. The following applies: read-out: ED50 (the source's name).

In the case of `CC1(C)CC[C@]2(C)[C@@H](O)C[C@]3(C)C(=CC[C@@H]4[C@@]5(C)CC[C@H](O[C@@H]6O[C@H](CO)[C@@H](O)[C@H](O[C@@H]7OC[C@H](O)[C@H](O)[C@H]7O)[C@H]6O[C@@H]6O[C@H](CO)[C@@H](O)[C@H](O)[C@H]6O)C(C)(C)[C@@H]5CC[C@]43C)[C@@H]2C1` [NEPHELIOSIDE VI], the CC50 in data set [1] is above 20 µg/mL. For the same compound, the EC50 in the data set with MCF7, in the data set on LNCaP and with Lu1 was above 20 µg/mL each time.

On to `CC1(C)CC[C@]2(C)[C@@H](O)C[C@]3(C)C(=CC[C@@H]4[C@@]5(C)CC[C@H](O[C@@H]6OC[C@@H](O)[C@H](O[C@@H]7OC[C@H](O)[C@H](O)[C@H]7O)[C@H]6O[C@@H]6O[C@H](CO)[C@@H](O)[C@H](O)[C@H]6O)C(C)(C)[C@@H]5CC[C@]43C)[C@@H]2C1` [NEPHELIOSIDE V], for which the CC50 in data set [1] is 17.7 µg/mL (≈ 20.4 µM). The EC50 in the data set with MCF7 stood at 13.9 µg/mL (≈ 16 µM); in the data set on LNCaP it was 11.7 µg/mL (≈ 13.5 µM); with Lu1, 13.6 µg/mL (≈ 15.6 µM).

For `CC1(C)CC[C@]2(CO)CC[C@]3(C)C(=CC[C@@H]4[C@@]5(C)CC[C@H](O[C@@H]6O[C@H](CO)[C@@H](O)[C@H](O[C@@H]7OC[C@H](O)[C@H](O)[C@H]7O)[C@H]6O[C@@H]6O[C@H](CO)[C@@H](O)[C@H](O)[C@H]6O)C(C)(C)[C@@H]5CC[C@]43C)[C@@H]2C1` [NEPHELIOSIDE II], in data set [1], the CC50 was above 20 µg/mL. For the same compound, the EC50 in the data set on MCF7, in the data set with LNCaP and in the data set with Lu1 was above 20 µg/mL throughout.

With `CO[C@@H]1C[C@H]2C(C)(C)[C@@H](O[C@@H]3O[C@H](CO)[C@@H](O)[C@H](O[C@@H]4OC[C@H](O)[C@H](O)[C@H]4O)[C@H]3O[C@@H]3O[C@H](CO)[C@@H](O)[C@H](O)[C@H]3O)CC[C@]2(C)[C@H]2CC=C3[C@@H]4CC(C)(C)CC[C@]4(CO)CC[C@@]3(C)[C@@]21C` [NEPHELIOSIDE IV], the CC50 in data set [1] is above 20 µg/mL. The EC50 with MCF7, with LNCaP and with Lu1 was above 20 µg/mL in each case.

For the compound `CC1(C)CC[C@]2(CO)CC[C@]3(C)C(=CC[C@@H]4[C@@]5(C)CC[C@H](O[C@@H]6OC[C@@H](O)[C@H](O[C@@H]7OC[C@H](O)[C@H](O)[C@H]7O)[C@H]6O[C@@H]6O[C@H](CO)[C@@H](O)[C@H](O)[C@H]6O)C(C)(C)[C@@H]5CC[C@]43C)[C@@H]2C1` [NEPHELIOSIDE I], in data set [1], the CC50 is above 20 µg/mL. In addition, the EC50 was above 20 µg/mL in the data set on MCF7, above 20 µg/mL in the data set with LNCaP and 19.5 µg/mL (≈ 22.4 µM) in the data set on Lu1.

As to `CC(=O)OC[C@H]1O[C@@H](O[C@@H]2[C@@H](O)[C@H](O[C@H]3CC[C@]4(C)[C@H]5CC=C6[C@@H]7CC(C)(C)CC[C@]7(CO)CC[C@@]6(C)[C@]5(C)CC[C@H]4C3(C)C)OC[C@H]2O)[C@H](O)[C@@H](O)[C@@H]1O`, the CC50 in data set [1] was above 20 µg/mL. The EC50 in the data set on MCF7, with LNCaP and in the data set with Lu1 was above 20 µg/mL throughout.
